# Results reported in the NIST ThermoML archive (doi:10.1016/j.tca.2005.06.034).
# ± gives the expanded uncertainty stated by the source.
# Assays:
# [1] = Molar enthalpy of transition or fusion; conditions: Crystal; DSC
# [2] = Crystal
smiles,measurement,setting,value
"CN1N=N[NH+](N)C1N.O=[N+]([O-])[O-] (stereo not drawn) [1,5-diamino-4-methyl-4,5-dihydro-1H-tetrazol-1-ium nitrate]",Molar enthalpy of transition or fusion,[1],5.16e-06 ± 1.7e-07 kcal/mol
same,mass density,"[2]; 571.3 K, 101.33 kPa, X-ray",1506 ± 2 kg/m3
same,Normal melting temperature,[2]; DTA,121.00 ± 1 °C
